Measurements taken from US20250041245A1, “ENDOXIFEN FOR TREATMENT OF CANCERS” (Atossa Therapeutics, Inc., priority 2021, published 2025).
Where “and” joins values, the source holds several entries; their conditions need not be identical. Equal values may be shown once. Entries after “also recorded” stand apart in the source; their conditions may differ.

How the values were obtained:
Type in all cases: cell-based, human
Parameters in all cases: key to Personalization Category: Personalization categories range from High, Good, Moderate, Low, to None; Personalization categories range from High, Good, Moderate, Low, to None; Personalization categories range from High, Good, Moderate, Low, to None; Personalization categories range from High, Good, Moderate, Low, to None; Personalization categories range from High, Good, Moderate, Low, to None; key to Sensitivity Category: Sensitivity categories range from High, Good, Moderate, Low, to None; Sensitivity categories range from High, Good, Moderate, Low, to None; Sensitivity categories range from High, Good, Moderate, Low, to None; Sensitivity categories range from High, Good, Moderate, Low, to None; Sensitivity categories range from High, Good, Moderate, Low, to None; AUC: unit not given beside the values
[1] = tested on: patient-derived tumor organoids (PDTOs), neuroblastoma; assay: Endoxifen screen in PDTOs: neuroblastoma; details: each line one patient sample; for IC50: four-parameter logistic fit
Description: (§1) This example describes screening endoxifen in patient-derived tumor organoids. Endoxifen was tested as a single agent on tumor organoids derived from patients diagnosed with various cancer types using a personalized cancer treatment screening assay (PARIS© Test, SEngine Precision Medicine). The screen utilized patient-derived tumor organoids (PDTOs) along with high-throughput drug screening and machine learning-guided data analysis to quantify the efficacy of endoxifen against samples derived from individual patients diagnosed with various cancer types. PDTOs are self-organizing, three-dimensional organoid structures that recapitulate structural, functional, and genomic aspects of in vivo organs. The PDTOs were grown in culture from patient tumor biopsy samples.
(§2) Fresh patient biopsy samples received following surgery were cleaned and purified. Immune cells (e.g., lymphocytes, blood cells), cancer-associated fibroblasts, and other non-tumor cells were removed to establish pure PDTOs for endoxifen testing. The tumor organoids were grown and expanded by supplying organ- and patient-specific growth factors and nutrients. The PDTOs were treated with increasing concentrations of endoxifen ranging from about 30 nM to about 10 μM, and the drug response was measured using a luminescence readout. A lower luminescence was indicative of a stronger drug response.
(§3) The results were analyzed using a “SEngine Precision Medicine” (SPM) scoring system to assess the sensitivity and personalization of each tumor organoid to endoxifen. The SPM score correlates with clinical outcomes, such that a higher SPM score for a specific PDTO-drug combination predicts a more favorable clinical outcome following treatment of the corresponding patient with the tested drug.
(§4) This example describes testing endoxifen efficacy against 17 distinct cancer types in patient-derived tumor organoids (PDTOs). Screening of PDTOs was performed as described in EXAMPLE 1. For each PDTO sample, the drug response was measured using a luminescent readout over a range of endoxifen concentrations. The drug response was evaluated based on the area under the fitted dose response curve (AUC) and the SPM scoring system. AUC values were normalized for each PDTO. Briefly, data points at each drug concentration were first normalized to a negative control, then a dose response drug curve was approximated using a four-parameter logistic model fitted to the normalized data points. The area under the curve was calculated from the normalized curve. Normalization allowed for comparison of AUC values between patient samples. The SPM scores were based on machine learning models that incorporate values for how well the drug kill patient cells (sensitivity metric), the relative drug responses of a patient to all other patients in a sample database (personalization metric), and knowledge of clinical outcomes for patients that had been evaluated with the personalized cancer screening assay (PARIS® Test, SEngine Precision Medicine).
(§5) The SPM scoring system evaluated whether a PDTO was unresponsive or responsive to endoxifen and the degree of drug response for PDTOs that were responsive to endoxifen. The SPM scoring system generated metrics an SPM score, predictive of clinical outcome, overall drug response (response category), drug sensitivity (sensitivity category), and drug personalization (personalization category). SPM scores ranged from 1-15, corresponding to the following drug response categories: no response (SPM 1-8), low response (SPM 9), moderate response (SPM 10-11), good response (SPM 12-13), and exceptional response (SPM 14-15). […] Moderate to good drug responses (SPM 10-13) may indicate that a drug has clinical relevance, possibly in combination with other drugs. The sensitivity category was determined from the sensitivity metric and is a measure of overall cell death of a patient's cells in response to endoxifen at six concentrations. […]

[2] = tested on: patient-derived tumor organoids (PDTOs), cholangiocarcinoma; assay: Endoxifen screen in PDTOs: cholangiocarcinoma; details: each line one patient sample; for IC50: four-parameter logistic fit
Description: as §1, §2, §3, §4, §5

[3] = tested on: patient-derived tumor organoids (PDTOs), rectal cancer; assay: Endoxifen screen in PDTOs: rectal cancer
Description: as §1, §2, §3, §4
The SPM scoring system evaluated whether a PDTO was unresponsive or responsive to endoxifen and the degree of drug response for PDTOs that were responsive to endoxifen. […] The sensitivity category was determined from the sensitivity metric and is a measure of overall cell death of a patient's cells in response to endoxifen at six concentrations. […]

[4] = normalized area under fitted dose response curve

- IC50 ([1]; Homo sapiens): 5.73 µM
- IC50 [1]: 5.87 µM and 7.18 µM
- IC50 ([3]; Homo sapiens, Patient 19, four-parameter logistic fit): 3.9 µM
SMILES: CC/C(=C(\c1ccc(O)cc1)c1ccc(OCCNC)cc1)c1ccccc1 [Endoxifen, 4-hydroxy-N-desmethyltamoxifen]
- Personalization Category [1]: Low and Moderate and None
- Response Category [1]: Low (low response (SPM 9)); also recorded: Moderate (moderate response (SPM 10-11)); also recorded: None (no response (SPM 1-8))
- Sensitivity Category [1]: Low and None
- AUC [1, 4]: 0.8848 and 0.8184 and 0.9511
- SPM Score ([1]; score range 1-15): 9 and 10 and 1
- IC50 ([2]; Homo sapiens): 8.7 µM
- Personalization Category [2]: None and Low
- Response Category [2]: None (no response (SPM 1-8)); also recorded: Low (low response (SPM 9))
- Sensitivity Category [2]: None and Low
- IC50 [2]: 9.19 µM
- AUC [2, 4]: 0.9497 and 0.9011 and 0.9669
- SPM Score ([2]; score range 1-15): 1 and 9 and 3
- Personalization Category ([3]; Patient 19): Low
- Sensitivity Category ([3]; Patient 19): Low
- AUC ([3]; Patient 19, normalized area under fitted dose response curve): 0.8614
- SPM Score ([3]; Patient 19, score range 1-15): 9
